In paper PMC4767141, “Discovery of Potent, Orally Bioavailable, Small-Molecule Inhibitors of WNT Signaling from a Cell-Based Pathway Screen” (Journal of Medicinal Chemistry, 2015):
Like-named read-outs stand apart in the source and are kept apart here.

What was measured:
[1] = Clint determination; format: in vitro ADME; conditions: mouse, microsomes, pH 7.4, mouse microsomes, read-out: Clint (μL/min/mg) Mouse
[2] = In vivo mouse PK; conditions: iv dosing
[3] = Clint determination; format: in vitro ADME; conditions: rat, microsomes, pH 7.4, rat microsomes, read-out: Clint (μL/min/mg) Rat
[4] = Clint determination; format: in vitro ADME; conditions: human, microsomes, pH 7.4, human microsomes, read-out: Clint (μL/min/mg) Human
[5] = pKa of the pyridine nitrogen; format: physicochemical; conditions: measured at Cyprotex
Experimental: [32] pKa measurement was conducted at Cyprotex according to their published protocol: .

[6] = Caco-2 Papp determination; format: in vitro ADME, human
[7] = target: CYP450 2C19 (Homo sapiens, UniProt P33261); assay: CYP450 inhibition; format: in vitro ADME
[8] = target: CYP450 2C9 (Homo sapiens, UniProt P11712); assay: CYP450 inhibition; format: in vitro ADME
[9] = target: CYP450 2D6 (Homo sapiens, UniProt P10635); assay: CYP450 inhibition; format: in vitro ADME
[10] = target: CYP450 1A2 (Homo sapiens, UniProt P05177); assay: CYP450 inhibition
[11] = target: CYP450 2B8 (Homo sapiens, UniProt P20813); assay: CYP450 inhibition
[12] = Aqueous (thermodynamic) solubility; format: physicochemical; conditions: phosphate buffer pH 7.4

Chain of CYP450 2C9 (P11712 whole entry): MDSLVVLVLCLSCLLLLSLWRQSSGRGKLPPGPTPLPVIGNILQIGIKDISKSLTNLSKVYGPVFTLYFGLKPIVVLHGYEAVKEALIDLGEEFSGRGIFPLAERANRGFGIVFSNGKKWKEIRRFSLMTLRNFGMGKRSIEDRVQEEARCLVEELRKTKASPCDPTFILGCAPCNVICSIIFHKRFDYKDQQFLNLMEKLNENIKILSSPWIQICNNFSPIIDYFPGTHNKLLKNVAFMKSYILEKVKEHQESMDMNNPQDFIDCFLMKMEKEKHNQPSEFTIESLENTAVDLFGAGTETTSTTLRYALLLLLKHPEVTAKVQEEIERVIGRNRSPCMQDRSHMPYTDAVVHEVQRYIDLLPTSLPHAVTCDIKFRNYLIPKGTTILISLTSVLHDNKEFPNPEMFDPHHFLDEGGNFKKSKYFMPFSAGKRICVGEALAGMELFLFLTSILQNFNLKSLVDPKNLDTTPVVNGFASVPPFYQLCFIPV
Chain of CYP450 2C19 (P33261 whole entry): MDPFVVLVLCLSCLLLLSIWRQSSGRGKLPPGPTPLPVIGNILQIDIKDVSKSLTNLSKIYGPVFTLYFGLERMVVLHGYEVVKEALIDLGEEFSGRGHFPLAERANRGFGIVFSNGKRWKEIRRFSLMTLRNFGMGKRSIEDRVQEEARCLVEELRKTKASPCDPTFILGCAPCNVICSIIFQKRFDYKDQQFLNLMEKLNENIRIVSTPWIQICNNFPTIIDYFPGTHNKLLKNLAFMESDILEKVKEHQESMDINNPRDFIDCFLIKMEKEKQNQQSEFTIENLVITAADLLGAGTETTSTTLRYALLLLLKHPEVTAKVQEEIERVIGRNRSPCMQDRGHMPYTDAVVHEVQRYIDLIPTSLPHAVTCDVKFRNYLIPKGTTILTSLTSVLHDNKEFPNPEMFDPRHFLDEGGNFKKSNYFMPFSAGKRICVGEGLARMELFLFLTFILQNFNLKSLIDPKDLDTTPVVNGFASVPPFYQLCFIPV
Chain of CYP450 2B8 (P20813 whole entry): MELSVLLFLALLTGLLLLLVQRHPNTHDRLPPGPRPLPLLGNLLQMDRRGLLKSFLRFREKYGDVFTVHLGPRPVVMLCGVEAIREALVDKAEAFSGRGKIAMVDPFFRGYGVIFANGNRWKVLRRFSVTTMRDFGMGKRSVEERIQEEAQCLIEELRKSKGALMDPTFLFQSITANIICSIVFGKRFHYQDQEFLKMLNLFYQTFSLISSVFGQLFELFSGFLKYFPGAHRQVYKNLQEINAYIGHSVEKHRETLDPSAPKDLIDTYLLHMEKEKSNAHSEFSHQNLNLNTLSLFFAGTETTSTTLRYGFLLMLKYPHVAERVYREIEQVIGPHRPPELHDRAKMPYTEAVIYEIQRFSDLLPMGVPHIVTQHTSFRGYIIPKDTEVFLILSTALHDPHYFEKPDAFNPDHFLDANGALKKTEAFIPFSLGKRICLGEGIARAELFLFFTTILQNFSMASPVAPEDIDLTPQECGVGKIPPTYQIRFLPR
Chain of CYP450 2D6 (P10635 whole entry): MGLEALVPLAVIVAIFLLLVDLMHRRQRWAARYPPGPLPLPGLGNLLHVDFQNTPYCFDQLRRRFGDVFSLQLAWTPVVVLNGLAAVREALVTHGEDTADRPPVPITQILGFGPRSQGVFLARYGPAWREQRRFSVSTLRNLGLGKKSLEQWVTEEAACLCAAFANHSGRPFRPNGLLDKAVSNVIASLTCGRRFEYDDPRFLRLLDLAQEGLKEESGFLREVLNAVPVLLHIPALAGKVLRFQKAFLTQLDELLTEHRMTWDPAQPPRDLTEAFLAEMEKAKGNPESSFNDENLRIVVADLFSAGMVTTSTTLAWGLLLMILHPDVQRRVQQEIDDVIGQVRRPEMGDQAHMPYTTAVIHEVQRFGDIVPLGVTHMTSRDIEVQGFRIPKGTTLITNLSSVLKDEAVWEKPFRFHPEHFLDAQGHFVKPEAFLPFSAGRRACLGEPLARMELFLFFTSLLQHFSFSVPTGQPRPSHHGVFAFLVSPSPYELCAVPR
Chain of CYP450 1A2 (P05177 whole entry): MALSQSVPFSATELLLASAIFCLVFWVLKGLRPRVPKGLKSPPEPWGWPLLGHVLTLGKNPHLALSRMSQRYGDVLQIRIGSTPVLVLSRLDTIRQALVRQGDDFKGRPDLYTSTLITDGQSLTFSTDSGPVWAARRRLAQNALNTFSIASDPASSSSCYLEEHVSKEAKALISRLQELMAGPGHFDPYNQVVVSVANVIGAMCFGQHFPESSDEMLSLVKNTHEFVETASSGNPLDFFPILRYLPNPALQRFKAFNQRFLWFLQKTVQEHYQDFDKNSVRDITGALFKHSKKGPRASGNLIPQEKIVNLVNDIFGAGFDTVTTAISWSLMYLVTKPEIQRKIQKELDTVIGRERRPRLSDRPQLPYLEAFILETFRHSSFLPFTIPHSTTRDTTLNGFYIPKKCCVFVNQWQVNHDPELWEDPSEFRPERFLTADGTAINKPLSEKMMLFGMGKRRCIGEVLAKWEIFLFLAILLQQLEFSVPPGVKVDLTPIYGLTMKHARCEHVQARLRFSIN

With `O=C1NCCC12CCN(c1c(Cl)cncc1-c1ccc(N3CCCCC3)cc1)CC2` [Compound 65] the microsomal CLint at 1 μM [1] was > 1000 µL/min/mg.

In the case of `NC(=O)C1CCN(c2c(Cl)cncc2-c2ccc(N3CCOCC3)cc2)CC1` [Compound 38, 1-(3-Chloro-5-(4-morpholin-4-ylphenyl)pyridin-4-yl)piperidine-4-carboxamide], the in vivo clearance [2] is reported as “greater than liver blood flow”.

For `O=C1CC2(CCN(c3c(Cl)cncc3-c3ccc(N4CCOCC4)cc3)CC2)C(=O)N1` [Compound 54, 8-(3-Chloro-5-(4-morpholin-4-ylphenyl)pyridin-4-yl)-2,8-diazaspiro[4.5]decan-1,3-dione], the microsomal CLint at 1 μM [1] was 54 µL/min/mg, the microsomal CLint at 1 μM [3] was 23 µL/min/mg and the microsomal CLint at 1 μM [4] was 67 µL/min/mg.

Compound `O=C1NCCC12CCN(c1c(Cl)cncc1-c1ccc(-c3ccncc3)cc1)CC2` [Compound 69] has a microsomal CLint at 1 μM [4] of 100 µL/min/mg.

`c1cc(N2CCCCC2)ccn1` [4-(piperidin-1-yl)pyridine] gave a pKa [5] of 9.42.

For `NC(=O)C1CCN(c2c(Cl)cncc2Cl)CC1` [Compound 9, 1-(3,5-Dichloropyridin-4-yl)piperidine-4-carboxamide], the “Caco-2 efflux (efflux ratio, ER)” value [6] was “no efflux”, the Papp at 2 h, 1 μM ([6]; human, Caco-2, 1 μM, pH 7.4) was 36 ×10⁻⁶ cm/s and the IC50 [7] was > 20 µM. For the same compound, the IC50 [8] was > 20 µM, the IC50 [9] was > 20 µM and the IC50 [10] was > 20 µM. The IC50 [11] was > 20 µM.

Work on `O=C1NCCC12CCN(c1c(Cl)cncc1-c1ccc(N3CCOCC3)cc1)C2` (centres unmarked) [Compound 52] yielded a microsomal CLint at 1 μM [1] of 827 µL/min/mg and a microsomal CLint at 1 μM [4] of 335 µL/min/mg.

In the case of `Cn1cc(-c2ccc(-c3cncc(Cl)c3N3CCC4(CC3)CC(=O)NC4=O)cc2)cn1` [Compound 81, 8-(3-Chloro-5-(4-(1-methyl-1H-pyrazol-4-yl)phenyl)pyridin-4-yl)-2,8-diazaspiro[4.5]decane-1,3-dione], the solubility [12] is reported as < 1 µg/mL.
